Assay results: a melting point compilation (Tetko et al.; mined from patent text by program, amines drawn as free bases though some values may be those of a salt)
Non-standard residues stand in square brackets, D forms with d. Residues, ends and D or L forms follow the SMILES beside them. pGlu = O=C1CC[CH](C(=O)O)N1

Row | SMILES | melting point
1 | COc1nnc2n1-c1sc(CCC(=O)N3CCOCC3)cc1C(c1ccccc1Cl)=NC2 | 163 to 164 °C
2 | CCOP(=O)(OCC)C(CCc1cc(C)nc2cc(-c3ccccc3)nn12)P(=O)(OCC)OCC | 51 to 52 °C
3 | COC(=O)[C@@H](C)N[C@@H](CC(C)(C)C)C(=O)O | 120 to 124 °C
4 | CCCCCCCCCCCCOCC(COCCCCCCCCCCCC)(CC(=O)O)CC(=O)O | 80 to 82 °C
5 | O=C(O)CCc1ccc(NC(=O)C(COC2CCCCO2)NS(=O)(=O)c2ccc(Cl)cc2)cc1 (racemic) | 150 to 151 °C
6 | O=C1CCCc2c1c(-c1ccccc1)nn2-c1ccccc1 | 162 °C
7 | c1ccc(-c2cn3ncsc3n2)cc1 | 127 to 130 °C
8 | Nc1nc(NCCc2ccc(Cl)cc2)sc1C(=O)c1ccccc1[N+](=O)[O-] | 117 to 120 °C
9 | CS(=O)(=O)c1ccc(-c2cnn(CC(=O)c3csc4ccccc34)c(=O)c2-c2ccc(F)cc2)cc1 | 183 to 184 °C
10 | CC(=O)c1ccc(-c2ccc(C(N)=NO)o2)cc1 | 197 to 199 °C
11 | Cc1ccccc1-c1nc(-c2ccccc2)c[nH]1 | 145 to 146 °C
12 | O=C(O)CCCCCOc1ccc([N+](=O)[O-])cc1 | 104 to 107 °C
13 | CCN(C)c1nc(-c2cc(OC)cc(OC)c2)nc2sc(C#N)c(C)c12 | 145 to 148 °C
14 | CC1(C)CCc2c(-c3ccoc3)nc3sc4c(NCc5ccncc5)ncnc4c3c2C1 | 265 to 266 °C
15 | O=C(O)CCn1ccn([C@H]2CCc3c(F)cc(F)cc3C2)c1=S | 182 to 184 °C
16 | FC(F)(F)c1cc(-c2ccc(Cl)cc2)[nH]c1C(F)(F)F | 72 to 73 °C
17 | Cc1nc(-n2cc(C(=O)c3ccccc3)nn2)sc1C(=O)NCc1ccccc1 | 176 to 178 °C
18 | CCN(CC)C(=O)Cc1ccccc1OC | 141 °C
19 | CCN(CC)C(=O)c1cc(-c2ccccc2)c2ccccc2c1OC | 102 to 103 °C
20 | CCC(=O)C1=C(O)CC(c2ccc3c(c2)OCCO3)CC1=O (centres undefined) | 155 °C
21 | Cc1cn(C(C)C(=O)N(C)C)nc1-c1cccs1 (centres undefined) | 100 to 102 °C
22 | CCC(C)C(C)C(=O)Nc1ccc2c(C)cn3c(=O)c(C(=O)OCCNC(=O)c4cccnc4)cnc3c2c1 (centres undefined) | 204 to 210 °C
23 | CC(C)(C)C(=O)NCCCOc1ccncc1 | 71.5 to 72.5 °C
24 | CCOP(=O)(NC(=O)c1[nH]c2cc(OC)c(OC)cc2c1-c1ccc(OC)c(OC)c1)OCC | 217 to 219 °C
25 | O=C(O)Cc1ccc2c(c1)C(=O)c1cc(F)ccc1CO2 | 173 to 175 °C

Row | SMILES | melting point
26 | COc1ccc(/C=C/c2ccccc2)c(OC)c1OC | 79 to 82 °C
27 | O=c1c2c(Cl)cccc2nc(CSc2ncnc3[nH]cnc23)n1-c1ccccc1Cl | 234 °C
28 | Nc1ccc(OCCn2ccnc2)cc1 | 91 to 92 °C
29 | CC1(C)CCCC(=O)N1 | 128 to 131 °C
30 | COc1ccc2[nH]c(C)cc2c1OCc1ccccc1 | 74 to 75 °C
31 | Nc1ccc(-c2nnn(-c3ccc(C(F)(F)F)cc3F)c2N)cc1 | 164 to 165 °C
32 | Cc1oc(-c2ccccc2)nc1COc1ccccc1COc1cccc(CC(=O)O)c1 | 104 to 105 °C
33 | C#CCOc1ccc(C(=O)C=Cc2ccccc2)c(O)c1 | 115 to 117 °C
34 | Cc1c(C=NO)c2ccccc2n1-c1ccc(OCc2ccccc2)cc1 | 171 to 173 °C
35 | CC(=O)NCCNC(=O)c1ccc(Cl)cc1 | 222 to 224 °C
36 | CN(CCP(O)O)c1cc(Oc2ccc(C(F)(F)F)cc2Cl)ccc1[N+](=O)[O-] | 161 to 164 °C
37 | O=C1C(=O)c2ccccc2C2=C1SCC1(CCN(S(=O)(=O)c3ccc(Cl)c(Cl)c3)CC1)O2 | 275 to 276 °C
38 | COc1ccc2c(c1)Oc1cscc1C(N1CCN(C)CC1)=N2 | 188 to 189 °C
39 | O=C(O)c1cn(C2CC2)c2c(F)c(N3CCNCC3)c(F)cc2c1=O | > 270 °C
40 | O=C1O[C@@H](CO)CN1c1cccc(F)c1 | 106 to 108 °C
41 | O=C(CCl)c1ccc(OCCOc2ccc(C(=O)CCl)cc2)cc1 | 165 °C
42 | NS(=O)(=O)c1cc(C(=O)O)cc(S)c1Oc1ccccc1 | 225 °C
43 | O=C1Nc2cccc(-c3cccc(NC(=O)c4cccc([N+](=O)[O-])c4)c3)c2/C1=C/c1ccc[nH]1 | 265 to 266 °C
44 | Clc1ccc(OC2CCN(CCc3c[nH]c4ccccc34)CC2)cc1 | 132 to 133 °C
45 | O=C(NO)c1ccc(C(=O)NOCCCc2ccccc2)cc1 | 179 to 181 °C
46 | CC1Nc2ccccc2N(Cc2ccccc2)C(=O)C1C/C=C/c1ccccc1 (centres undefined) | 119 to 120 °C
47 | Nc1nc(=O)n(C(=O)Nc2cccc(Cl)c2)cc1F | 250 to 252 °C
48 | CCN(CC)CCOc1cccc2c1c1cccc(F)c1n2Cc1ccc(F)cc1 | 59 to 60 °C
49 | Cc1sc(C=O)c(C)c1Br | 44 to 45 °C
50 | CC#CCOc1ccc(S(=O)C(C(=O)NO)c2ccccc2)cc1 (centres undefined) | 55 °C

Row | SMILES | melting point
51 | O=[N+]([O-])c1ccc(OC2OC(CO)C(O)C(OCc3ccccc3)C2O)cc1 (centres undefined) | 127 °C
52 | CC12CCC3C(CCC4CC(O)CCC43C)C1CCC2C#CBr (centres undefined) | 165 to 167 °C
53 | O=C(O)Cc1cccc(-c2onc3ccccc23)c1 | 143 to 145 °C
54 | CC(C)(COc1ccc(Cl)cc1)C(O)C(Oc1ccc(Cl)cc1)n1ccnc1 (centres undefined) | 142 to 144 °C
55 | O=C(O)CCc1ccc(-c2nc(=O)c3ccccc3s2)nc1 | 232 °C
56 | Brc1c(OCc2nnn[nH]2)ccc2cc(-c3csc(-c4ccccc4)n3)ccc12 | 227 to 231 °C
57 | CCOCc1nc2c(N)nc3ccc(O)cc3c2n1CCCCNC(=O)Nc1ccccc1 | 218 to 221 °C
58 | CCc1nc(N)nc(N)c1-c1ccc(N(Cc2ccccc2)Cc2ccccc2)c([N+](=O)[O-])c1 | 197 to 199 °C
59 | CCc1nc(O)c2sccc2n1 | 233 to 237 °C
60 | CN(C)c1ccnc(CO)n1 | 83 to 84 °C
61 | CCCCCCN(Cc1ccccc1)Cc1nc(-c2ccc(-c3ccccc3)cc2)c[nH]1 | 120 to 122 °C
62 | Brc1ccc(CC2=NCCN2)c2ccccc12 | 133 to 135 °C
63 | CCc1c(C(=O)C(N)=O)c2c(OCC(=O)NOC(C)(C)C)cccc2n1Cc1ccccc1 | 203 to 205 °C
64 | COc1cc(OC)cc(N2CCN(C(=O)N(C)c3cc(C)c(C)cc3OC)CC2)c1 | 86 to 88 °C
65 | CC(C)(C)c1ccc(S(=O)(=O)NC(=O)C(Oc2ccc3c(c2)C(=O)NC3=O)c2ccc3c(c2)OCO3)cc1 (centres undefined) | 215 °C
66 | CC1(C)CCCN(C(=O)CN(C(=O)CNC(=O)Nc2cccc(CO)c2)c2ccccc2)C1 | 248 °C
67 | CCOCc1cc2ccccc2oc1=Nc1ccc(Br)cc1 | 73 to 74 °C
68 | Cc1[nH]c(Cl)c(C#N)c1SC#N | 171 °C
69 | NC(=O)c1ccc(-c2ccc(N)cc2)cc1 | 281 to 284 °C
70 | O=C(O)CCCCCCCSc1nc(-c2ccccc2)c(-c2ccccc2)[nH]1 | 160 to 162 °C
71 | Cc1nnn(CC(C)n2nnc3cc4c(=O)n(C5CC5)nnc4cc3c2=O)n1 (centres undefined) | 157 to 160 °C
72 | CNC(=O)Oc1ccc(NC(=O)COC)c(C)c1 | 130 to 132 °C
73 | CC1(C)NC(=O)N(c2ccc([N+](=O)[O-])cc2)C1=O | 176 to 177 °C
74 | CC(C)(C)OC(=O)c1cc[nH]c1 | 82 to 84 °C
75 | O=C(c1ccccc1)c1ccc(-c2ccc(CBr)cc2)cc1 | 110 to 112 °C

Row | SMILES | melting point
76 | CCN1CCNC(=O)C1c1ccc(Nc2nc(-c3ccc(F)c(NC(=O)c4cc5c(s4)CCCC5)c3C)cn(C)c2=O)cc1 (centres undefined) | 179 to 180 °C
77 | c1ccc(CSc2cc(SCc3ccccc3)c3ccc4c(SCc5ccccc5)cc(SCc5ccccc5)c5ccc2c3c54)cc1 | 178 to 180 °C
78 | CCNc1nc(NCC)nc(-c2ccc(-c3ccccc3)cc2)n1 | 183 to 184 °C
79 | NC(=O)CC(NC(=O)C(CO)NC(=O)CNC(=O)CNC(=O)C1CCC(=O)N1)C(=O)NC(Cc1ccccc1)C(N)=O (centres undefined) ([pGlu]GGSNF-NH2; configuration not given here) | 218 to 221 °C
80 | CS(=O)(=O)C(C#N)=Cc1c(Cl)n(Cc2ccccc2)c2ccccc12 | 206 °C
81 | CCCNC(=O)C(C)=Cc1ccc2c(c1)c(Cc1ccc(C(=O)NS(=O)(=O)c3ccccc3C)cc1OC)cn2CC(=O)N(C)C | 230 to 231 °C
82 | CCC(NC(C)=O)c1ccc(CN2CCN(c3ccccc3)CC2)cc1 (centres undefined) | 109 to 110 °C
83 | CCCCNc1cccnc1S(N)(=O)=O | 100 to 101 °C
84 | CN(C)/C=C/C(=O)c1ccc(OCCCCN2C(=O)c3ccccc3C2=O)cc1 | 109 to 111 °C
85 | COC(=O)C(C(=O)OC)c1cc([N+](=O)[O-])ccc1C(=O)O | 153 °C
86 | COCC(COC)(CN(C)CCP(C)(C)=S)SCc1ccccc1 | 74 °C
87 | COC(=O)c1ccnc(Cl)c1N | 91 to 92 °C
88 | CC(C)[Si](OC[C@H]1C(C=O)=Cc2cc3c(cc2[C@@H]1O)OCO3)(C(C)C)C(C)C | 87 to 89 °C
89 | CCS(=O)(=O)CCC(=O)NNC(=O)N1Cc2ccccc2Oc2ccc(C(F)(F)F)cc21 | 139 to 145 °C
90 | O=C(C(=O)c1ccccc1Br)c1ccc(F)cc1 | 72 to 78 °C
91 | O=C(OCC1OC(n2cc(F)c(=O)[nH]c2=O)C(O)C1OC(=O)c1ccccc1)c1ccccc1 (centres undefined) | 93 to 97 °C
92 | CCCc1c(OCCCOc2ccc(C(=O)O)cc2Br)ccc(C(C)=O)c1O | 180 to 182 °C
93 | CCCC(C(=O)N(C)C)n1cc(C)c(-c2ccccc2)n1 (centres undefined) | 84 to 86 °C
94 | CN(C)C(=O)ON=C1SC(=C(C#N)C#N)SC1(C)C | 175 to 177 °C
95 | COc1ccc(C(=O)c2cccc(OCc3nc(-c4ccccc4)oc3C)c2)c(OCC(=O)O)c1 | 198 to 199 °C
96 | Fc1ccc(CNc2nc(OCc3ccccc3)nc(OCC(F)(F)F)n2)cc1 | 101 to 103 °C
97 | C[C@@H]1CN(Cc2ccccc2)C[C@H]1C(=O)NC1CC1 (relative stereo) | 81 to 83 °C
98 | COc1nc(OC)nc(N(C)C(=O)NS(=O)(=O)c2ccccc2S(C)(=O)=O)n1 | 160 to 162 °C
99 | CCOC(=O)C(=NOCc1ccc(OCc2nc(-c3ccccc3)oc2C)cc1)c1ccc(Br)cc1 | 105 to 106 °C
